# From publication PMC2586124 (Journal of natural products, 2008)
# pIC50: −log10 of the molar value.
# Target: HIV-1 RNase H (Human immunodeficiency virus type 1 group M subtype B, UniProt P04585)
# Assay: RNase H FRET assay, HIV-1 RNase H
# Assay type: biochemical
# Conditions: IC50, HIV-1 RNase H, in vitro
compound,measurement,value
"O=C(OC[C@H]1O[C@@H](Oc2ccc(O)cc2)[C@H](OC(=O)c2cc(O)c(O)c(O)c2)[C@@H](O)[C@@H]1O)c1ccc(O)cc1 [hyemaloside B (2), hyemaloside B]",pIC50,< 4.74
